What all share (test): NCI tumour cell line growth inhibition, 48 h
For experiment [1], the system named is TK-10 renal.
The subject of experiment [2] is COLO 205 colon.
For experiment [3], the system named is SK-MEL-2 melanoma.
Experiment [4] deals with HOP-62 NSCLC.
The subject of experiment [5] is SR leukemia.
In experiment [6] the test system is MDA-MB-435.
Experiment [7] concerns DU-145 prostate.
Experiment [8] relates to UACC-62 melanoma.
Experiment [9] deals with LOX IMVI melanoma.
Experiment [10] has as its system MALME-3M melanoma.

Values joined by “and” are separate entries in the source; they are usually repeats but may differ in a detail not shown here. Identical values can stand only once.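 How tested: cells in 96-well plates exposed to compound for 48 hours at five concentrations. GI50 marks 50% less growth. TGI: concentration producing complete growth inhibition.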

`CN1C(=O)[C@@H]2[C@@H]3c4ccccc4N[C@@H]3c3[nH]c4ccccc4c3[C@@H]2C1=O`: the TGI is 77.6 µM in [1]; 36.5 µM in [2]; 33.1 µM in experiment [3]; 43.5 µM in experiment [4]; 59.3 µM in [5]; 64.7 µM in experiment [6]. For the same compound, the TGI in experiment [7] is over 100 µM; in experiment [8] it was 32.4 µM; in [9], 46.6 µM.
Consider `O=C1c2c(F)c(F)c(F)c(F)c2SC2=Nc3cccc4cccc(c34)N12`, for which the TGI in experiment [1] is 26.1 µM; in experiment [2], 22.8 µM; in experiment [3], 7.89 µM; in [4] it was 27.2 µM; in experiment [5], 15.2 µM; in experiment [6], 12.8 µM. The TGI in [7] was 24.9 µM; in experiment [10], 9.24 µM; in [8] it was 11 µM; in [9], 7.79 µM.
Consider `CCOC(=O)[C@H](CO)Nc1c(O)c2c(c(O)c1Cl)C(=O)C=CC2=O`, for which the TGI in experiment [1], in experiment [2], in experiment [3], in [4], in experiment [5] and in experiment [6] was over 10 µM in each case. In addition, the TGI in experiment [7], in experiment [10], in experiment [8] and in experiment [9] was over 10 µM throughout.
Turning to `C=C(C)[C@@H]1CCC2=C(CC[C@]3(C)[C@@H]([C@@H](CCC=C(C)C)C(=O)O)[C@H](O)C[C@@]23C)[C@@]1(C)CCC(=O)O`, the TGI in [1], in [2], in experiment [3], in [4], in experiment [5] and in [6] was over 100 µM each time. Also, the TGI in experiment [7], in experiment [10] and in experiment [9] was over 100 µM in each case.
In the case of `Cc1cc2c(cc1-c1cc3c(cc1C)C(C(C)C)=C(O)C(=O)/C3=C\Nc1ccccn1)/C(=C/Nc1ccccn1)C(=O)C(O)=C2C(C)C`, the TGI in experiment [1] was over 100 µM; in experiment [2], over 100 µM; in experiment [3] it was 86.5 µM; in experiment [5], over 100 µM; in [6], over 100 µM; in experiment [7] it was over 100 µM. Also, the figures for the TGI in experiment [10], in experiment [8] and in experiment [9] were 67.6 µM, over 100 µM and over 100 µM, respectively.
For the compound `COc1cc(C2c3cc4c(cc3OC(NNc3ccccc3)C2C)OCO4)cc(OC)c1O` (stereo unspecified), the TGI in experiment [1] is 23.6 µM; in [2] it was 17.9 µM; in [3] it was 6.35 µM; in experiment [4], 33.1 µM; in experiment [5], 29.7 µM; in experiment [6], 3.96 µM. Further, the TGI in experiment [7] is 17.5 µM; in [10], 11 µM; in [8], 6.03 µM; in experiment [9], 19 µM.
On to `CCOC(=O)c1cc([N+](=O)[O-])cc([N+](=O)[O-])c1Sc1ncnc2nc[nH]c12`, for which the TGI was 9.55 µM in experiment [1]; 5.03 µM in experiment [2]; 9.43 µM in [3]; 24.5 µM in [4]; over 100 µM in [5]; 4.27 µM in [6]. Moreover, the TGI stood at 5.42 µM in experiment [7], 21.3 µM in experiment [8] and 4.16 µM in experiment [9].
Turning to `O=C(NCCC1CN(S(=O)(=O)C(F)(F)F)c2ccccc21)OCc1ccccc1` (stereo unspecified), the TGI in [2], in experiment [3], in [4], in experiment [5], in experiment [6] and in experiment [7] was over 100 µM each time. Further, the TGI in experiment [10] and in [8] was over 100 µM in each case.
Turning to `N#CC(C#N)C1CN2CCC1CC2` (stereo unspecified), the TGI in [1], in experiment [2], in experiment [3], in experiment [4], in [5] and in [6] was over 100 µM each time. The TGI in experiment [7], in experiment [10], in experiment [8] and in experiment [9] was over 100 µM each time.
Take `NC(CS)C(=O)NCCNc1ccc(NCCNC(=O)C(N)CS)c2c1C(=O)c1c(O)ccc(O)c1C2=O` (stereo unspecified): the GI50 in experiment [1] is 0.08 µM; in [2], 0.136 µM; in [3] it was 0.227 µM; in experiment [10] it was 0.0818 µM; in experiment [8], 0.0196 µM; in experiment [9], 0.0149 µM. The TGI is 3.58 µM and 0.49 µM in experiment [1]; 1.83 µM and 1.12 µM in [2]; 1.38 µM and 0.87 µM in [3]; 0.03 µM and 0.0483 µM in experiment [4]; 0.232 µM in experiment [5]; 1.86 µM in experiment [6]. In addition, the TGI was 0.123 µM in experiment [7]; 1.27 µM and 1.24 µM in [10]; 0.516 µM and 0.249 µM in experiment [8]; 0.205 µM and 0.165 µM in [9].
Consider `N#Cc1c(O)c(C=O)c(=O)n2c1[nH]c1ccccc12`, for which the TGI in [1], in experiment [2], in experiment [4], in experiment [5], in experiment [6] and in [7] was over 100 µM each time. Besides, the TGI in [10], in experiment [8] and in experiment [9] was over 100 µM throughout.
In the case of `COc1c(C)c(C/C=C(\C)CCCCO)c(OC)c2ccccc12`, the TGI is over 100 µM in experiment [1]; over 100 µM in experiment [2]; over 100 µM in experiment [3]; 55.6 µM in experiment [5]; 99.2 µM in [6]; over 100 µM in [7]. For the same compound, the TGI in [8] is over 100 µM; in experiment [9] it was 37.6 µM.
For the compound `O=C(c1cccnc1)N1N=C(c2ccc3c(c2)OCO3)CC1(O)c1cc(F)c(Cl)cc1Cl` (stereo unspecified), the TGI is over 100 µM in [1]; 31.2 µM in [2]; 59.2 µM in experiment [3]; 48.7 µM in experiment [4]; 76.4 µM in experiment [5]; over 100 µM in experiment [6]. In addition, the TGI amounted to 59.8 µM in experiment [7], 54.1 µM in experiment [10] and 30.5 µM in experiment [9].
